Source: the supplement of paper PMC11061612

Experiments:
A375 (Melanoma) = experiment: Bliss excess, mean over the matrix (fraction); higher = more synergy
Outline: (§1)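 After 24 hours at 37°C and 5% CO2 in 1536-well plates, cells in DMEM/F12 or RPMI plus 10% FBS received two-drug dose matrices for 72 hours. Viability came from CellTiter-Glo 2.0 luminescence and was scaled as inhibition, anchored at 0 by vehicle wells and at 1 by blank wells. Combination Emax is taken as the second-highest inhibition in the matrix, and Bliss excess as the observed combination effect less EA + EB − EA·EB, with EA and EB the single-agent effects.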

[1] = tested on: C2BBe1 (Colorectal Carcinoma); experiment: as above
Outline: as §1

[2] = tested on: CAL-85-1 (Breast Carcinoma); experiment: as above
Outline: as §1

[3] = tested on: COR-L105 (Lung Adenocarcinoma); experiment: as above
Outline: as §1

[4] = tested on: GRANTA-519 (B-Cell Non-Hodgkin's Lymphoma); experiment: as above
Outline: as §1

HT-144 (Melanoma) = experiment: as above
Outline: as §1

[5] = tested on: JJN-3 (Plasma Cell Myeloma); experiment: as above
Outline: as §1

[6] = tested on: JURL-MK1 (Chronic Myelogenous Leukemia); experiment: as above
Outline: as §1

[7] = tested on: L-363 (Plasma Cell Myeloma); experiment: as above
Outline: as §1

[8] = tested on: MRK-nu-1 (Breast Carcinoma); experiment: as above
Outline: as §1

[9] = tested on: NCI-H1048 (Small Cell Lung Carcinoma); experiment: as above
Outline: as §1

[10] = tested on: NCI-H2009 (Lung Adenocarcinoma); experiment: as above
Outline: as §1

NCI-H2452 (Mesothelioma) = experiment: as above
Outline: as §1

RVH-421 (Melanoma) [11] = experiment: as above
Outline: as §1

[12] = tested on: SNU-1 (Gastric Carcinoma); experiment: as above
Outline: as §1

[13] = tested on: TOV-21G (Ovarian Carcinoma); experiment: as above
Outline: as §1

RVH-421 (Melanoma) [14] = experiment: combination Emax (second highest fraction inhibited in the dose matrix, 72 h); higher = more inhibition; extreme values may be limits of the assay
Outline: as §1
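Throughout, for Bliss excess, mean over the matrix: after 72 h of two-drug dosing.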

| SMILES | Bliss excess (A375 (Melanoma)) | Bliss excess [1] | Bliss excess [2] | Bliss excess [3] | Bliss excess [4] | Bliss excess (HT-144 (Melanoma)) | Bliss excess [5] | Bliss excess [6] | Bliss excess [7] | Bliss excess [8] | Bliss excess [9] | Bliss excess [10] | Bliss excess (NCI-H2452 (Mesothelioma)) | Bliss excess (RVH-421 (Melanoma) [11]) | Bliss excess [12] | Bliss excess [13] | combination Emax (RVH-421 (Melanoma) [14]) |
| --- | --- | --- | --- | --- | --- | --- | --- | --- | --- | --- | --- | --- | --- | --- | --- | --- | --- |
| CN(C)CCCOc1ccc(-c2ccc3ncc4c(c3c2)n(C2CCOCC2)c(=O)n4C)cn1 [AZD0156] + C=CCn1c(=O)c2cnc(Nc3ccc(N4CCN(C)CC4)cc3)nc2n1-c1cccc(C(C)(C)O)n1 [AZD1775] (first compound max 1 µM, partner max 1 µM) | -0.0275 | 0.0003 | -0.0155 | -0.0414 | -0.0268 | -0.0268 | -0.0271 | 0.0119 | 0.0057 | -0.0082 | -0.0815 | -0.0695 | -0.0253 | -0.0576 | -0.003 | 0.0044 | 0.161 |
| CN(C)CCCOc1ccc(-c2ccc3ncc4c(c3c2)n(C2CCOCC2)c(=O)n4C)cn1 [AZD0156] + CCN(CCO)CCCOc1ccc2c(Nc3cc(CC(=O)Nc4cccc(F)c4)[nH]n3)ncnc2c1 [AZD2811] (first compound max 1 µM, 7x7, partner max 1 µM) | -0.0112 | -0.0183 | -0.0409 | -0.0457 | 0.0447 | 0.0066 | 0.09 | 0.0538 | 0.0096 | 0.0186 | -0.0053 | -0.0224 | -0.042 | -0.0626 | 0.093 | 0.0147 | 0.0787 |
| CN(C)CCCOc1ccc(-c2ccc3ncc4c(c3c2)n(C2CCOCC2)c(=O)n4C)cn1 [AZD0156] + C[C@@H]1COCCN1C2=NC(=NC(=C2)C3(CC3)[S@](=N)(=O)C)C4=C5C=CNC5=NC=C4 [AZD6738] (first compound max 1 µM, 7x7, partner max 10 µM) | 0.0378 | -0.0234 | 0.0042 | -0.0779 | -0.0335 | -0.0484 | 0.161 | 0.0269 | 0.0767 | -0.0411 | -0.0129 | -0.0045 | -0.0547 | -0.0581 | 0.0461 | 0.025 | 0.18 |
| C=CCn1c(=O)c2cnc(Nc3ccc(N4CCN(C)CC4)cc3)nc2n1-c1cccc(C(C)(C)O)n1 [AZD1775] + O=C(c1cc(Cc2n[nH]c(=O)c3ccccc23)ccc1F)N1CCN(C(=O)C2CC2)CC1 [Olaparib] (first compound max 1 µM, partner max 10 µM) | -0.0161 | -0.0322 | -0.055 | -0.0881 | -0.0679 | -0.0681 | -0.0591 | 0.001 | -0.0153 | -0.0311 | -0.0389 | 0.0075 | -0.0608 | -0.105 | -0.0425 | -0.0126 | 0.253 |
| CCN(CCO)CCCOc1ccc2c(Nc3cc(CC(=O)Nc4cccc(F)c4)[nH]n3)ncnc2c1 [AZD2811] + C=CCn1c(=O)c2cnc(Nc3ccc(N4CCN(C)CC4)cc3)nc2n1-c1cccc(C(C)(C)O)n1 [AZD1775] (first compound max 1 µM, partner max 1 µM) | 0.0143 | 0.024 | -0.0258 | -0.0415 | -0.013 | 0.0516 | -0.0233 | -0.0001 | -0.0312 | 0.0147 | 0.0662 | 0.0477 | -0.0387 | -0.0694 | 0.0679 | 0.0317 | 0.0949 |
| CCN(CCO)CCCOc1ccc2c(Nc3cc(CC(=O)Nc4cccc(F)c4)[nH]n3)ncnc2c1 [AZD2811] + C[C@@H]1COCCN1C2=NC(=NC(=C2)C3(CC3)[S@](=N)(=O)C)C4=C5C=CNC5=NC=C4 [AZD6738] (first compound max 1 µM, 7x7, partner max 10 µM) | -0.0573 | -0.0362 | 0.0098 | -0.0679 | -0.0269 | -0.0711 | 0.0338 | 0.027 | -0.0485 | -0.077 | -0.0304 | -0.0359 | -0.0756 | -0.0815 | 0.0129 | -0.0548 | 0.172 |
| CCN(CCO)CCCOc1ccc2c(Nc3cc(CC(=O)Nc4cccc(F)c4)[nH]n3)ncnc2c1 [AZD2811] + O=C(c1cc(Cc2n[nH]c(=O)c3ccccc23)ccc1F)N1CCN(C(=O)C2CC2)CC1 [Olaparib] (first compound max 1 µM, 7x7, partner max 10 µM) | 0.0039 | -0.0112 | -0.0246 | -0.0311 | 0.0274 | -0.0266 | 0.0422 | 0.073 | 0.0025 | -0.0037 | -0.0161 | 0.0113 | -0.0675 | -0.0685 | 0.0233 | 0.0352 | 0.176 |
| CN(CCO)CC[C@H](CSc1ccccc1)Nc1ccc(S(=O)(=O)NC(=O)c2ccc(N3CCC([C@@H](O)c4ccccc4-c4ccc(Cl)cc4)CC3)cc2)cc1S(=O)(=O)C(F)(F)F [AZD4320] + CN(C)CCCOc1ccc(-c2ccc3ncc4c(c3c2)n(C2CCOCC2)c(=O)n4C)cn1 [AZD0156] (first compound max 1 µM, 7x7, partner max 1 µM) | -0.0357 | -0.0443 | -0.0472 | -0.031 | 0.007 | -0.0032 | 0.0142 | -0.0368 | -0.0005 | -0.0133 | 0.0406 | -0.0424 | -0.0287 | -0.0254 | 0.0192 | -0.0262 | 0.164 |
| Cc1c2c(nn1C)CSCc1cc(n(C)n1)CSc1cc(c3ccccc3c1)OCCCc1c(C(=O)O)n(C)c3c-2c(Cl)ccc13 [AZD5991] + C1CN(CCC1(C(=O)N[C@@H](CCO)C2=CC=C(C=C2)Cl)N)C3=NC=NC4=C3C=CN4 [Capivasertib] (first compound max 1 µM, 7x7, partner max 3 µM) | -0.0192 | -0.0214 | -0.0289 | -0.0019 | -0.0295 | 0.0582 | -0.041 | 0.0028 | 0.0476 | 0.0055 | 0.0267 | -0.0207 | -0.0146 | -0.0513 | -0.0176 | -0.0249 | 0.411 |
| Cc1c2c(nn1C)CSCc1cc(n(C)n1)CSc1cc(c3ccccc3c1)OCCCc1c(C(=O)O)n(C)c3c-2c(Cl)ccc13 [AZD5991] + C=CCn1c(=O)c2cnc(Nc3ccc(N4CCN(C)CC4)cc3)nc2n1-c1cccc(C(C)(C)O)n1 [AZD1775] (first compound max 1 µM, partner max 1 µM) | 0.0237 | 0.0165 | -0.0194 | -0.0025 | -0.055 | 0.0284 | -0.0331 | 0.0395 | 0.0077 | -0.0285 | 0.0002 | -0.0051 | 0.0015 | 0.0088 | -0.0237 | -0.0865 | 0.248 |
| Cc1c2c(nn1C)CSCc1cc(n(C)n1)CSc1cc(c3ccccc3c1)OCCCc1c(C(=O)O)n(C)c3c-2c(Cl)ccc13 [AZD5991] + CC1(C)CCC(CN2CCN(c3ccc(C(=O)NS(=O)(=O)c4ccc(NCC5CCOCC5)c([N+](=O)[O-])c4)c(Oc4cnc5[nH]ccc5c4)c3)CC2)=C(c2ccc(Cl)cc2)C1 [Venetoclax] (first compound max 1 µM, 7x7, partner max 1 µM) | -0.0063 | 0.0031 | -0.0296 | -0.043 | 0.0312 | 0.005 | 0.0514 | -0.0133 | 0.0519 | 0.0139 | 0.049 | -0.0158 | -0.0471 | -0.0237 | 0.136 | -0.0115 | 0.358 |
| Cc1c2c(nn1C)CSCc1cc(n(C)n1)CSc1cc(c3ccccc3c1)OCCCc1c(C(=O)O)n(C)c3c-2c(Cl)ccc13 [AZD5991] + CCN(CCO)CCCOc1ccc2c(Nc3cc(CC(=O)Nc4cccc(F)c4)[nH]n3)ncnc2c1 [AZD2811] (first compound max 1 µM, 7x7, partner max 1 µM) | 0.0227 | -0.0093 | -0.0011 | -0.0986 | 0.109 | 0.0561 | 0.0225 | 0.098 | 0.0523 | 0.0321 | 0.0766 | 0.071 | -0.0486 | -0.0055 | 0.0586 | 0.0576 | 0.214 |
| Cc1c2c(nn1C)CSCc1cc(n(C)n1)CSc1cc(c3ccccc3c1)OCCCc1c(C(=O)O)n(C)c3c-2c(Cl)ccc13 [AZD5991] + CN(C)CCCOc1ccc(-c2ccc3ncc4c(c3c2)n(C2CCOCC2)c(=O)n4C)cn1 [AZD0156] (first compound max 1 µM, 7x7, partner max 1 µM) | 0.0053 | 0.0009 | -0.0542 | -0.0139 | -0.0017 | -0.0352 | -0.0028 | -0.0403 | 0.0235 | -0.028 | 0.0136 | -0.0204 | 0.0366 | 0.0113 | -0.0144 | -0.0213 | 0.284 |
| Cc1c2c(nn1C)CSCc1cc(n(C)n1)CSc1cc(c3ccccc3c1)OCCCc1c(C(=O)O)n(C)c3c-2c(Cl)ccc13 [AZD5991] + C[C@@H]1COCCN1C2=NC(=NC(=C2)C3(CC3)[S@](=N)(=O)C)C4=C5C=CNC5=NC=C4 [AZD6738] (first compound max 1 µM, 7x7, partner max 10 µM) | 0.0291 | -0.0093 | -0.0233 | -0.0407 | 0.0107 | 0.0039 | -0.0071 | 0.0056 | -0.0625 | 0.0056 | 0.0445 | 0.0199 | 0.0425 | 0.013 | 0.035 | 0.0322 | 0.265 |
| Cc1c2c(nn1C)CSCc1cc(n(C)n1)CSc1cc(c3ccccc3c1)OCCCc1c(C(=O)O)n(C)c3c-2c(Cl)ccc13 [AZD5991] + C[C@@H](Nc1cc(F)cc(F)c1)c1cc(C(=O)N(C)C)cc2c(=O)cc(N3CCOCC3)oc12 [AZD8186] (first compound max 1 µM, 7x7, partner max 3 µM) | -0.0124 | -0.026 | -0.0067 | -0.0864 | -0.0444 | 0.0622 | -0.0448 | -0.0112 | -0.0476 | 0.0152 | 0.0019 | -0.0076 | 0.0441 | -0.0204 | 0.002 | -0.0139 | 0.517 |
| Cc1c2c(nn1C)CSCc1cc(n(C)n1)CSc1cc(c3ccccc3c1)OCCCc1c(C(=O)O)n(C)c3c-2c(Cl)ccc13 [AZD5991] + Cc1cc2ncnn2cc1Nc1ncc2c(n1)n(C1CCOCC1)c(=O)n2C [AZD7648] (first compound max 1 µM, 7x7, partner max 10 µM) | -0.0244 | -0.0449 | -0.055 | -0.0645 | -0.0268 | -0.0131 | 0.0324 | -0.0227 | 0.0345 | -0.0058 | -0.0227 | -0.0188 | -0.0065 | -0.0432 | -0.0307 | -0.0461 | 0.255 |
